Measured values taken from US20250325529A1, “INHIBITORS OF FATTY ACID BINDING PROTEINS (FABPs), METHODS OF USE AND METHODS OF MAKING” (Celloram, inc., priority 2024, published 2025).
Entries after “also recorded” stand apart in the source; their conditions may differ.

Tests used:
PPARδ = PPARδ (Homo sapiens (Human), UniProt Q03181); assay: Transcriptional activation assay in COS7 cells, PPARδ; format: cell-based; conditions: PPRE luciferase reporter, PD151 and PD152 at 10 μM
Method: COS-7 were cultured in 6-well plates and co-transfected with either a luciferase reporter driven by 3 copies of a PPRE and expression vector for either PPARδ, PPARα or PPARγ together with a vector harboring cDNA for β-galactosidase, serving as a transfection control. To test whether FABP4 or FABP5 mediate activation of their cognate receptors PPARγ and PPARδ, respectively, cells were also co-transfected with a plasmid harboring sequence of either FABP4 or FABP5. 18 h post-transfection, cells were placed in a serum-free medium and treated with agonist/compound. 18 h. later, cells were lysed, luciferase activity was assayed (Promega, WI, USA) and corrected for transfection efficiency by the activity of β-galactosidase.
Transcriptional activation assays were carried out utilizing COS7 cells as described above.

OVCAR8 cells = assay: Proliferation assay (Incucyte confluency), OVCAR8; format: cell-based; conditions: Homo sapiens, OVCAR-8, 96 h, 4 days, read-out: IC50, inhibition of OVCAR8 proliferation
Method: COS-7, MDA-MB-231, and HepG2, were cultured in Dulbecco's modified Eagle's medium (DMEM) supplemented with 10% fetal bovine serum (Invitrogen Life Sciences, Carlsbad, CA). BT-549, OVCAR5 and OVCAR8 cells were cultured in L-Glutamine containing RPMI medium supplemented with 10% fetal calf serum (Invitrogen Life Sciences, Carlsbad, CA). The primary Human Mammary Epithelial Cells (HMEC) were cultured in mammary epithelial cell complete medium (basal medium plus rH-Insulin (5 μg/mL); L-Glutamine (6 mM); Epinephrine (1 μM); Apo-Transferrin (5 μg/mL); rH-TGF-α (0.5 ng/mL); ExtractP (0.4%); Hydrocortisone Hemisuccinate (100 ng/mL)).
2000 cells were plated in each well of 96-well plate. The next day cells were treated with compounds and incubated in Incucyte for 4 days. Images taken every 4 hours for the duration of the time were analyzed to calculate percentage of confluency in response to the treatments. Growth inhibition was calculated as 1—(percentage of viable cells out of untreated cells).

HepG2 cells = assay: Lipid uptake assay (Nile Red), in vitro liver steatosis model; format: cell-based
Method: HepG2 cells: 5000 cells were plated in 96-well plate. The next day cells were treated with tested compounds for 4 hours and then treated with 1 mM oleic acid for additional 24 hours. Cells were then stained with Nile Red and lipid content was measured using Spectra Max i3X plate reader (Molecular Devices) and quantified with the SoftMax Pro 6 software.

[1] = test system: Salmonella typhimurium tester strain TA1537; assay: Ames test (Bacterial Reverse Mutation Test), TA1537; format: cell-based
Method: PD152 (compound 2) was tested for genotoxic and cytotoxic side effects by Ames test. The Ames test is a Bacterial Reverse Mutation Test of mutagenicity that utilizes Salmonella typhimurium tester strains TA98, TA100, TA1535, TA1537 and Escherichia coli tester strain WP2 uvrA (pKM101), both in the presence and absence of S9.
The compound PD152 was tested at 10 concentrations (0.032-1000 μg/plate) in the presence of, or absence of, the hepatic enzyme S9.
The aniline FABP4/5 inhibitor compound, 2-((2-((2,4-dichloro-5-isopropoxyphenyl)amino)-2-oxoethyl)thio)-2-methylpropanoic acid (compound “B104” as disclosed in WO2023043803A1) also was tested for genotoxic and cytotoxic side effects by Ames test. […]

MB-231 xenograft tumors = assay: TNBC MB-231 xenograft model; format: in vivo, Nu/Nu nude mice; conditions: oral 20 or 40 mg/Kg, 5 times a week
Method: Seven-week-old Nu/Nu athymic female mice were injected subcutaneously into the right flank with 5×10^6 MB-231 cells 1:1 with Matrigel. Once tumors reached ˜50 mm^3 in size, mice were divided into 3 groups (n=5 for each group) and treatment started. Mice were treated by gavage with either vehicle (0.5% methyl cellulose, 1% Tween 80), 20 mg/kg, or 40 mg/kg of PD152 dissolved in vehicle, 5 days a week. Thirty days after treatment started mice were scarified. Statistical significance between the different treatment groups was evaluated using a Student's t-test. The experiment was conducted after approval by the institutional animal care and use committee at Case Western Reserve University.
TNBC xenograft model was used to test the efficacy of PD152 in suppressing tumors growth in vivo. 5×10^6 MB-231 cells were subcutaneously injected into the right flank of Nu/Nu nude mice and tumor growth was monitored twice a week. Once tumors were established and reached volume of ˜50 mm^3, mice were divided into 3 groups and treatments started. Mice were treated orally by either PD152 (20 mg/Kg, or 40 mg/Kg), or a vehicle 5 times a week.

[2] = TA1537, absence of S9, 0.0312 μg/plate
[3] = TA1537, absence of S9, 0.1 μg/plate
[4] = TA1537, absence of S9, 0.316 μg/plate
[5] = TA1537, absence of S9, 1 μg/plate
[6] = TA1537, absence of S9, 3.16 μg/plate
[7] = TA1537, absence of S9, 10 μg/plate
[8] = TA1537, absence of S9, 31.6 μg/plate
[9] = TA1537, absence of S9, 100 μg/plate
[10] = TA1537, absence of S9, 316 μg/plate
[11] = TA1537, absence of S9, 1000 μg/plate
[12] = TA1537, presence of S9, 0.0312 μg/plate
[13] = TA1537, presence of S9, 0.1 μg/plate
[14] = TA1537, presence of S9, 0.316 μg/plate
[15] = TA1537, presence of S9, 1 μg/plate
[16] = TA1537, presence of S9, 3.16 μg/plate
[17] = TA1537, presence of S9, 10 μg/plate
[18] = TA1537, presence of S9, 31.6 μg/plate
[19] = TA1537, presence of S9, 100 μg/plate
[20] = TA1537, presence of S9, 316 μg/plate
[21] = TA1537, presence of S9, 1000 μg/plate

Sequence of PPARδ (Q03181 whole entry, species assumed): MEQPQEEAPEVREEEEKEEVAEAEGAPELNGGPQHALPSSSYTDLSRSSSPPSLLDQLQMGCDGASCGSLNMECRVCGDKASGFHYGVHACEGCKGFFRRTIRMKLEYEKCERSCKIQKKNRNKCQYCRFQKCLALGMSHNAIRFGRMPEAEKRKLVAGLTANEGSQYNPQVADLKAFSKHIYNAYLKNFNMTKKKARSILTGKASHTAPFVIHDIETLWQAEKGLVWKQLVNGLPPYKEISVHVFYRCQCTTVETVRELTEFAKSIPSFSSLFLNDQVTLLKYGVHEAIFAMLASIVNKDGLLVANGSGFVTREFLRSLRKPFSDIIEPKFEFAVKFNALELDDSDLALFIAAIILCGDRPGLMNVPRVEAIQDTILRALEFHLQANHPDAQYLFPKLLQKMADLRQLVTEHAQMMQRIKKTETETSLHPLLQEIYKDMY

CC(C)Oc1nc(NC(=O)CSCC(=O)O)c(Cl)cc1Cl [PD152, 2-((2-((3,5-dichloro-6-isopropoxypyridin-2-yl)amino)-2-oxoethyl)thio)acetic acid]
Activation of transcription by PPARδ (PPARδ): None of these tested compounds activated; also recorded: none of the tested compounds PD151 and PD152 activated transcription | IC50 (OVCAR8 cells): 665 nM | IC50 (HepG2 cells; Homo sapiens, compound 4 h then oleic acid 1 mM 24 h, Nile Red, read-out: IC50 for inhibition of lipid uptake): 553 nM | Treatment concentrations at which lipid uptake was markedly inhibited (HepG2 cells; oleic acid 1 mM): > 0.2 µM | Fold increase [1, 2]: 1 | Mean number of revertants [1, 2]: 3 | Fold increase [1, 3]: 1 | Mean number of revertants [1, 3]: 3 | Fold increase [1, 4]: 1 | Mean number of revertants [1, 4]: 4 | Fold increase [1, 5]: 1 | Mean number of revertants [1, 5]: 3 | Fold increase [1, 6]: 1 | Mean number of revertants [1, 6]: 3 | Fold increase [1, 7]: 1 | Mean number of revertants [1, 7]: 3 | Fold increase [1, 8]: 1 | Mean number of revertants [1, 8]: 4 | Fold increase [1, 9]: 1 | Mean number of revertants [1, 9]: 3 | Fold increase [1, 10]: 1 | Mean number of revertants [1, 10]: 3 | Fold increase [1, 11]: 1 | Mean number of revertants [1, 11]: 3 | Fold increase [1, 12]: 1 | Mean number of revertants [1, 12]: 4 | Fold increase [1, 13]: 1 | Mean number of revertants [1, 13]: 3 | Fold increase [1, 14]: 1 | Mean number of revertants [1, 14]: 3 | Fold increase [1, 15]: 1 | Mean number of revertants [1, 15]: 3 | Fold increase [1, 16]: 1 | Mean number of revertants [1, 16]: 3 | Fold increase [1, 17]: 1 | Mean number of revertants [1, 17]: 4 | Fold increase [1, 18]: 1 | Mean number of revertants [1, 18]: 3 | Fold increase [1, 19]: 1 | Mean number of revertants [1, 19]: 3 | Fold increase [1, 20]: 1 | Mean number of revertants [1, 20]: 4 | Fold increase [1, 21]: 1 | Mean number of revertants [1, 21]: 4 | Tumor growth (volume over time) (MB-231 xenograft tumors; 30 days): growth was completely inhibited | Tumor weight at end point (MB-231 xenograft tumors; day 30): significantly lower
